Results: publication PMC6001238, “Iterative Chemical Engineering of Vancomycin Leads to Novel Vancomycin Analogs With a High in Vitro Therapeutic Index” (Frontiers in Microbiology, 2018)
In brackets after ≈: the same amount, converted by molar mass.

Experiments:
[1] = tested on: MRSA KS6; experiment: MIC, broth microdilution, MRSA KS6; type: cell-based, Staphylococcus aureus; conditions: for MIC-fold improvement vs. vancomycin: MRSA KS6, ratio of MIC of vancomycin and MIC of analogue; for MIC: Staphylococcus aureus MRSA KS6, read-out: MIC
Summary of the method: (§1)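 Controls (ultrapure water; broth not inoculated) were included throughout CLSI-compliant broth microdilution. One condition supplemented analogue or comparator with 10 μM vancomycin, final level.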

[2] = tested on: E. faecalis VSE 1; experiment: MIC, broth microdilution, vancomycin-sensitive E. faecalis (VSE 1); type: cell-based, Enterococcus faecalis; conditions: for MIC: Enterococcus faecalis VSE 1 (vancomycin-sensitive), read-out: MIC; for MIC-fold improvement vs. vancomycin: VSE 1, ratio of MIC of vancomycin and MIC of analogue
Summary of the method: as §1

[3] = tested on: E. faecalis VRE 29; experiment: MIC, broth microdilution, vancomycin-resistant E. faecalis VRE 29 (VanA); type: cell-based, Enterococcus faecalis; conditions: for MIC: Enterococcus faecalis VRE 29 (vancomycin-resistant), read-out: MIC; for MIC-fold improvement vs. vancomycin: VRE 29, ratio of MIC of vancomycin and MIC of analogue
Summary of the method: as §1

[4] = tested on: E. faecalis VRE 53; experiment: MIC, broth microdilution, vancomycin-resistant E. faecalis VRE 53 (VanA); type: cell-based, Enterococcus faecalis; conditions: for MIC: Enterococcus faecalis VRE 53 (vancomycin-resistant), read-out: MIC; for MIC-fold improvement vs. vancomycin: VRE 53, ratio of MIC of vancomycin and MIC of analogue
Summary of the method: as §1

[5] = tested on: human cervix carcinoma (HeLa) cells; experiment: Cytostatic activity, HeLa cell proliferation; type: cell-based; conditions: mean ± SD of three experiments; highest concentration tested 250 µM; 4 days; read-out: Toxicity (IC50) HeLa
Summary of the method: (§2)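 Test compounds, serially diluted, received an equal volume of cell suspension at 300,000–500,000 cells/mL. After 37°C incubation (2 days for L1210, 3 for CEM, 4 for HeLa), cells were enumerated by Coulter counting and 50%-inhibitory concentrations calculated per cell type.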

[6] = tested on: MRSA KS1; experiment: MIC, broth microdilution, MRSA KS1; type: cell-based, Staphylococcus aureus; conditions: for MIC-fold improvement vs. vancomycin: MRSA KS1, ratio of MIC of vancomycin and MIC of analogue; for MIC: Staphylococcus aureus MRSA KS1, read-out: MIC
Summary of the method: as §1

[7] = tested on: MRSA KS89; experiment: MIC, broth microdilution, MRSA KS89; type: cell-based, Staphylococcus aureus; conditions: for MIC-fold improvement vs. vancomycin: MRSA KS8, ratio of MIC of vancomycin and MIC of analogue; for MIC: Staphylococcus aureus MRSA KS8, read-out: MIC
Summary of the method: as §1

[8] = tested on: S. aureus VSSA (ATCC 6538); experiment: MIC, broth microdilution, vancomycin-sensitive S. aureus (VSSA/MSSA, ATCC 6538); type: cell-based, Staphylococcus aureus; conditions: for MIC: Staphylococcus aureus VSSA, read-out: MIC; for MIC-fold improvement vs. vancomycin: VSSA, ratio of MIC of vancomycin and MIC of analogue
Summary of the method: as §1

[9] = tested on: MRSA KS2; experiment: MIC, broth microdilution, MRSA KS2; type: cell-based, Staphylococcus aureus; conditions: for MIC-fold improvement vs. vancomycin: MRSA KS2, ratio of MIC of vancomycin and MIC of analogue; for MIC: Staphylococcus aureus MRSA KS2, read-out: MIC
Summary of the method: as §1

[10] = tested on: L1210, CEM and HeLa cell lines; experiment: Cytostatic activity, average or summary over L1210, CEM and HeLa; type: cell-based; conditions: average of L1210, CEM and HeLa; read-out: Toxicity (IC50) Average
Summary of the method: as §2

[11] = tested on: S. aureus VISA/HIP5827; experiment: MIC, broth microdilution, vancomycin-intermediate S. aureus VISA HIP5827; type: cell-based, Staphylococcus aureus; conditions: for MIC: Staphylococcus aureus VISA/HIP5827, read-out: MIC; for MIC-fold improvement vs. vancomycin: VISA/HIP5827, ratio of MIC of vancomycin and MIC of analogue
Summary of the method: as §1

[12] = tested on: Murine leukemia (L1210) cells; experiment: Cytostatic activity, L1210 cell proliferation; type: cell-based; conditions: mean ± SD of three experiments; highest concentration tested 250 µM; 2 days; read-out: Toxicity (IC50) L1210
Summary of the method: as §2

[13] = tested on: S. aureus VRSA; experiment: MIC, broth microdilution, vancomycin-resistant S. aureus (VRSA); type: cell-based, Staphylococcus aureus; conditions: for MIC: Staphylococcus aureus VRSA, read-out: MIC; for MIC-fold improvement vs. vancomycin: VRSA, ratio of MIC of vancomycin and MIC of analogue
Summary of the method: as §1

[14] = tested on: E. faecalis VRE 37; experiment: MIC, broth microdilution, vancomycin-resistant E. faecalis VRE 37 (VanA); type: cell-based, Enterococcus faecalis; conditions: for MIC: Enterococcus faecalis VRE 37 (vancomycin-resistant), read-out: MIC; for MIC-fold improvement vs. vancomycin: VRE 37, ratio of MIC of vancomycin and MIC of analogue
Summary of the method: as §1

[15] = tested on: E. faecalis VRE 6; experiment: MIC, broth microdilution, vancomycin-resistant E. faecalis VRE 6 (VanA); type: cell-based, Enterococcus faecalis; conditions: for MIC: Enterococcus faecalis VRE 6 (vancomycin-resistant), read-out: MIC; for MIC-fold improvement vs. vancomycin: VRE 6, ratio of MIC of vancomycin and MIC of analogue
Summary of the method: as §1

[16] = tested on: human T-lymphocyte (CEM) cells; experiment: Cytostatic activity, CEM cell proliferation; type: cell-based; conditions: mean ± SD of three experiments; highest concentration tested 250 µM; 3 days; read-out: Toxicity (IC50) CEM
Summary of the method: as §2

MIC-fold improvement vs. vancomycin [1] | MIC [1] [µM] | MIC [2] [µM] | MIC-fold improvement vs. vancomycin [2] | MIC [3] [µM] | MIC-fold improvement vs. vancomycin [3] | MIC [4] [µM] | MIC-fold improvement vs. vancomycin [4] | MIC-fold improvement vs. vancomycin [6] | MIC [6] [µM] | MIC-fold improvement vs. vancomycin [7] | MIC [7] [µM] | MIC [8] [µM] | MIC-fold improvement vs. vancomycin [8] | MIC-fold improvement vs. vancomycin [9] | MIC [9] [µM] | MIC [11] [µM] | MIC-fold improvement vs. vancomycin [11] | SMILES | IC50 [5] [µM] | IC50 [10] [µM] | further results
4 | 0.20 (≈ 0.336 µg/mL) | 0.39 (≈ 0.655 µg/mL) | 4 | 6.25 (≈ 10.5 µg/mL) | 64 | 6.25 (≈ 10.5 µg/mL) | 64 | >8 | <0.10 | 4 | 0.20 (≈ 0.336 µg/mL) | 0.20 (≈ 0.336 µg/mL) | 4 | 4 | 0.20 (≈ 0.336 µg/mL) | 0.39 (≈ 0.655 µg/mL) | 16 | CCCCCc1ccc(C(=O)NCCCNC(=O)C2NC(=O)C3NC(=O)C(NC(=O)C4NC(=O)C(CC(N)=O)NC(=O)C(NC(=O)C(CC(C)C)NC)C(O)c5ccc(c(Cl)c5)Oc5cc4cc(c5OC4OC(CO)C(O)C(O)C4OC4CC(C)(N)C(O)C(C)O4)Oc4ccc(cc4Cl)C3O)c3ccc(O)c(c3)-c3c(O)cc(O)cc32)cc1 (stereo not drawn) [Vanc-49] | 99 ± 1 | 66 | IC50 [12]: 63 ± 8 µM; MIC [13]: 0.39 µM (≈ 0.655 µg/mL); MIC-fold improvement vs. vancomycin [13]: 256; MIC [14]: 6.25 µM (≈ 10.5 µg/mL); MIC-fold improvement vs. vancomycin [14]: 64; MIC [15]: 6.25 µM (≈ 10.5 µg/mL); MIC-fold improvement vs. vancomycin [15]: 32; IC50 [16]: 36 ± 8 µM
4 | 0.20 (≈ 0.351 µg/mL) | 0.78 (≈ 1.37 µg/mL) | 2 | 6.25 (≈ 11 µg/mL) | 64 | 6.25 (≈ 11 µg/mL) | 64 | 0.5 | 1.56 (≈ 2.74 µg/mL) | 4 | 0.20 (≈ 0.351 µg/mL) | 0.39 (≈ 0.684 µg/mL) | 2 | 4 | 0.20 (≈ 0.351 µg/mL) | 0.78 (≈ 1.37 µg/mL) | 8 | CNC(CC(C)C)C(=O)NC1C(=O)NC(CC(N)=O)C(=O)NC2C(=O)NC3C(=O)NC(C(=O)NC(C(=O)NCC(=O)Nc4ccc(-c5cn(-c6ccc(OC)cc6)nn5)cc4)c4cc(O)cc(O)c4-c4cc3ccc4O)C(O)c3ccc(c(Cl)c3)Oc3cc2cc(c3OC2OC(CO)C(O)C(O)C2OC2CC(C)(N)C(O)C(C)O2)Oc2ccc(cc2Cl)C1O (stereo not drawn) [Vanc-72] | 25 ± 10 | 72 | IC50 [12]: 173 ± 106 µM; MIC [13]: 0.78 µM (≈ 1.37 µg/mL); MIC-fold improvement vs. vancomycin [13]: 128; MIC [14]: 6.25 µM (≈ 11 µg/mL); MIC-fold improvement vs. vancomycin [14]: 64; MIC [15]: 3.13 µM (≈ 5.49 µg/mL); MIC-fold improvement vs. vancomycin [15]: 64; IC50 [16]: 17 ± 1 µM
4 | 0.20 (≈ 0.329 µg/mL) | 0.78 (≈ 1.28 µg/mL) | 2 | 6.25 (≈ 10.3 µg/mL) | 64 | 6.25 (≈ 10.3 µg/mL) | 64 | 4 | 0.20 (≈ 0.329 µg/mL) | 2 | 0.39 (≈ 0.642 µg/mL) | 0.78 (≈ 1.28 µg/mL) | 1 | 4 | 0.20 (≈ 0.329 µg/mL) | 0.78 (≈ 1.28 µg/mL) | 8 | CNC(CC(C)C)C(=O)NC1C(=O)NC(CC(N)=O)C(=O)NC2C(=O)NC3C(=O)NC(C(=O)NC(C(=O)NCC(=O)Nc4ccc(C#CC5CC5)cc4)c4cc(O)cc(O)c4-c4cc3ccc4O)C(O)c3ccc(c(Cl)c3)Oc3cc2cc(c3OC2OC(CO)C(O)C(O)C2OC2CC(C)(N)C(O)C(C)O2)Oc2ccc(cc2Cl)C1O (stereo not drawn) [Vanc-70] | 73 ± 10 | 155 | IC50 [12]: ≥ 250 µM; MIC [13]: 1.56 µM (≈ 2.57 µg/mL); MIC-fold improvement vs. vancomycin [13]: 64; MIC [14]: 6.25 µM (≈ 10.3 µg/mL); MIC-fold improvement vs. vancomycin [14]: 64; MIC [15]: 6.25 µM (≈ 10.3 µg/mL); MIC-fold improvement vs. vancomycin [15]: 32; IC50 [16]: 143 ± 113 µM
